According to US9051300B2, “Herbicides” (Syngenta Limited, priority 2009, dated 2015):

What follows are molecules tested on Lolium perenne (LOLPE) (assay: Pre-emergence herbicidal activity, glasshouse pot test). Conditions: rate not printed (columns shifted), evaluated after 13 days, 100=total damage to plant, 0=no damage.
Format: in vivo
Method: (§1) Seeds of a variety of test species are sown in standard soil in pots. After cultivation for one day (pre-emergence) or after 8 days cultivation (post-emergence) under controlled conditions in a glasshouse (at 24/16° C., day/night; 14 hours light; 65% humidity), the plants are sprayed with an aqueous spray solution derived from the formulation of the technical active ingredient in acetone/water (50:50) solution containing 0.5% Tween 20 (polyoxyethylene sorbitan monolaurate, CAS RN 9005-64-5). The test plants are then grown in a glasshouse under controlled conditions in a glasshouse (at 24/16° C., day/night; 14 hours light; 65% humidity) and watered twice daily. After 13 days for pre and post-emergence, the test is evaluated (100=total damage to plant; 0=no damage to plant). Lolium perenne (LOLPE), Alopecurus myosuroides (ALOMY), Echinochloa crus-galli (ECHCG), Avena fatua (AVEFA) Pre-Emergence Activity

In order of rising “Pre-Emergence Activity LOLPE (damage to plant)” value:
1. Cc1cc(-c2ccc(Cl)cc2)nn1C1C(=O)C/C(=C/c2ccc(F)cn2)C1=O (stereo not drawn) [Compound A22]  60
2. Cc1cnc(-c2ccc(Cl)cc2)nc1C1C(=O)C/C(=C\C2CCOCC2)C1=O (stereo not drawn) [Compound A9]  70
3. CCc1sc(-c2ccc(Cl)cc2)nc1C1C(=O)C/C(=C\C2CCOCC2)C1=O (stereo not drawn) [Compound A7]  80
4. Cc1cc(-c2ccc(Cl)cc2)nn1C1C(=O)CC(CC2CCOCC2)C1=O (stereo not drawn) [Compound A25]  90
5. Cc1sc(-c2ccccc2)nc1C1C(=O)CC(CC2CCOCC2)C1=O (stereo not drawn) [Compound A17]  100
6. Cc1sc(-c2ccc(Cl)cc2)nc1C1C(=O)CC(CC2CCOCC2)C1=O (stereo not drawn) [Compound A18]  100

Each molecule was assayed on Echinochloa crus-galli (ECHCG) in the same assay as above. Conditions: rate not printed (columns shifted), evaluated after 13 days, 100=total damage to plant, 0=no damage.
Format: in vivo
Method: as §1

In order of falling “Pre-Emergence Activity ECHCG (damage to plant)” value:
1. Cc1sc(-c2ccccc2)nc1C1C(=O)CC(CC2CCOCC2)C1=O (stereo not drawn) [Compound A17]  100
2. Cc1sc(-c2ccc(Cl)cc2)nc1C1C(=O)CC(CC2CCOCC2)C1=O (stereo not drawn) [Compound A18]  100
3. CCc1sc(-c2ccc(Cl)cc2)nc1C1C(=O)C/C(=C\C2CCOCC2)C1=O (stereo not drawn) [Compound A7]  100
4. Cc1cnc(-c2ccc(Cl)cc2)nc1C1C(=O)C/C(=C\C2CCOCC2)C1=O (stereo not drawn) [Compound A9]  100
5. Cc1cc(-c2ccc(Cl)cc2)nn1C1C(=O)CC(CC2CCOCC2)C1=O (stereo not drawn) [Compound A25]  100
6. Cc1cc(-c2ccc(Cl)cc2)nn1C1C(=O)C/C(=C/c2ccc(F)cn2)C1=O (stereo not drawn) [Compound A22]  70

The molecules below were run on Avena fatua (AVEFA) in the same assay as above. Conditions: rate not printed (columns shifted), evaluated after 13 days, 100=total damage to plant, 0=no damage.
Format: in vivo
Method: as §1

In order of rising “Pre-Emergence Activity AVEFA (damage to plant)” value:
1. Cc1cc(-c2ccc(Cl)cc2)nn1C1C(=O)C/C(=C/c2ccc(F)cn2)C1=O (stereo not drawn) [Compound A22]  20
2. Cc1sc(-c2ccccc2)nc1C1C(=O)CC(CC2CCOCC2)C1=O (stereo not drawn) [Compound A17]  50
3. Cc1cnc(-c2ccc(Cl)cc2)nc1C1C(=O)C/C(=C\C2CCOCC2)C1=O (stereo not drawn) [Compound A9]  50
4. CCc1sc(-c2ccc(Cl)cc2)nc1C1C(=O)C/C(=C\C2CCOCC2)C1=O (stereo not drawn) [Compound A7]  70
5. Cc1cc(-c2ccc(Cl)cc2)nn1C1C(=O)CC(CC2CCOCC2)C1=O (stereo not drawn) [Compound A25]  70
6. Cc1sc(-c2ccc(Cl)cc2)nc1C1C(=O)CC(CC2CCOCC2)C1=O (stereo not drawn) [Compound A18]  90

The molecules below were run on Alopecurus myosuroides (ALOMY) in the same assay as above. Conditions: rate not printed (columns shifted), evaluated after 13 days, 100=total damage to plant, 0=no damage.
Format: in vivo
Method: as §1

In order of falling “Pre-Emergence Activity ALOMY (damage to plant)” value:
1. Cc1sc(-c2ccc(Cl)cc2)nc1C1C(=O)CC(CC2CCOCC2)C1=O (stereo not drawn) [Compound A18]  80
2. Cc1sc(-c2ccccc2)nc1C1C(=O)CC(CC2CCOCC2)C1=O (stereo not drawn) [Compound A17]  70
3. CCc1sc(-c2ccc(Cl)cc2)nc1C1C(=O)C/C(=C\C2CCOCC2)C1=O (stereo not drawn) [Compound A7]  70
4. Cc1cc(-c2ccc(Cl)cc2)nn1C1C(=O)CC(CC2CCOCC2)C1=O (stereo not drawn) [Compound A25]  70
5. Cc1cc(-c2ccc(Cl)cc2)nn1C1C(=O)C/C(=C/c2ccc(F)cn2)C1=O (stereo not drawn) [Compound A22]  40
6. Cc1cnc(-c2ccc(Cl)cc2)nc1C1C(=O)C/C(=C\C2CCOCC2)C1=O (stereo not drawn) [Compound A9]  10

These molecules were tested on Lolium perenne (LOLPE) (assay: Post-emergence herbicidal activity, glasshouse pot test). Conditions: 312 h, evaluated after 13 days, 100=total damage to plant, 0=no damage.
Format: in vivo
Method: as §1, with “Post-Emergence” for “Pre-Emergence”

In order of rising pest or weed control at 250 g/ha:
1. Cc1cnc(-c2ccc(Cl)cc2)nc1C1C(=O)C/C(=C\C2CCOCC2)C1=O (stereo not drawn) [Compound A9]  40%
2. Cc1cc(-c2ccc(Cl)cc2)nn1C1C(=O)C/C(=C/c2ccc(F)cn2)C1=O (stereo not drawn) [Compound A22]  50%
3. CCc1sc(-c2ccc(Cl)cc2)nc1C1C(=O)C/C(=C\C2CCOCC2)C1=O (stereo not drawn) [Compound A7]  60%
4. Cc1sc(-c2ccccc2)nc1C1C(=O)CC(CC2CCOCC2)C1=O (stereo not drawn) [Compound A17]  100%
5. Cc1sc(-c2ccc(Cl)cc2)nc1C1C(=O)CC(CC2CCOCC2)C1=O (stereo not drawn) [Compound A18]  100%
6. Cc1cc(-c2ccc(Cl)cc2)nn1C1C(=O)CC(CC2CCOCC2)C1=O (stereo not drawn) [Compound A25]  100%

The molecules below were run on Echinochloa crus-galli (ECHCG) in the same assay as above. Conditions: 312 h, evaluated after 13 days, 100=total damage to plant, 0=no damage.
Format: in vivo
Method: as §1, with “Post-Emergence” for “Pre-Emergence”

In order of rising pest or weed control at 250 g/ha:
1. Cc1cc(-c2ccc(Cl)cc2)nn1C1C(=O)C/C(=C/c2ccc(F)cn2)C1=O (stereo not drawn) [Compound A22]  90%
2. Cc1sc(-c2ccccc2)nc1C1C(=O)CC(CC2CCOCC2)C1=O (stereo not drawn) [Compound A17]  100%
3. Cc1sc(-c2ccc(Cl)cc2)nc1C1C(=O)CC(CC2CCOCC2)C1=O (stereo not drawn) [Compound A18]  100%
4. CCc1sc(-c2ccc(Cl)cc2)nc1C1C(=O)C/C(=C\C2CCOCC2)C1=O (stereo not drawn) [Compound A7]  100%
5. Cc1cnc(-c2ccc(Cl)cc2)nc1C1C(=O)C/C(=C\C2CCOCC2)C1=O (stereo not drawn) [Compound A9]  100%
6. Cc1cc(-c2ccc(Cl)cc2)nn1C1C(=O)CC(CC2CCOCC2)C1=O (stereo not drawn) [Compound A25]  100%

What follows are molecules tested on Avena fatua (AVEFA) in the same assay as above. Conditions: 312 h, evaluated after 13 days, 100=total damage to plant, 0=no damage.
Format: in vivo
Method: as §1, with “Post-Emergence” for “Pre-Emergence”

In order of falling pest or weed control at 250 g/ha:
1. Cc1sc(-c2ccc(Cl)cc2)nc1C1C(=O)CC(CC2CCOCC2)C1=O (stereo not drawn) [Compound A18]  100%
2. CCc1sc(-c2ccc(Cl)cc2)nc1C1C(=O)C/C(=C\C2CCOCC2)C1=O (stereo not drawn) [Compound A7]  100%
3. Cc1cc(-c2ccc(Cl)cc2)nn1C1C(=O)CC(CC2CCOCC2)C1=O (stereo not drawn) [Compound A25]  100%
4. Cc1sc(-c2ccccc2)nc1C1C(=O)CC(CC2CCOCC2)C1=O (stereo not drawn) [Compound A17]  90%
5. Cc1cnc(-c2ccc(Cl)cc2)nc1C1C(=O)C/C(=C\C2CCOCC2)C1=O (stereo not drawn) [Compound A9]  60%
6. Cc1cc(-c2ccc(Cl)cc2)nn1C1C(=O)C/C(=C/c2ccc(F)cn2)C1=O (stereo not drawn) [Compound A22]  60%

What follows are molecules tested on Alopecurus myosuroides (ALOMY) in the same assay as above. Conditions: 312 h, evaluated after 13 days, 100=total damage to plant, 0=no damage.
Format: in vivo
Method: as §1, with “Post-Emergence” for “Pre-Emergence”

In order of falling pest or weed control at 250 g/ha:
1. Cc1sc(-c2ccc(Cl)cc2)nc1C1C(=O)CC(CC2CCOCC2)C1=O (stereo not drawn) [Compound A18]  100%
2. Cc1cc(-c2ccc(Cl)cc2)nn1C1C(=O)CC(CC2CCOCC2)C1=O (stereo not drawn) [Compound A25]  100%
3. Cc1sc(-c2ccccc2)nc1C1C(=O)CC(CC2CCOCC2)C1=O (stereo not drawn) [Compound A17]  90%
4. CCc1sc(-c2ccc(Cl)cc2)nc1C1C(=O)C/C(=C\C2CCOCC2)C1=O (stereo not drawn) [Compound A7]  90%
5. Cc1cc(-c2ccc(Cl)cc2)nn1C1C(=O)C/C(=C/c2ccc(F)cn2)C1=O (stereo not drawn) [Compound A22]  70%
6. Cc1cnc(-c2ccc(Cl)cc2)nc1C1C(=O)C/C(=C\C2CCOCC2)C1=O (stereo not drawn) [Compound A9]  20%

What follows are molecules tested on Winter Wheat variety 'Hereward' (assay: Crop damage to winter wheat, post-emergence spray). Conditions: 250 g/ha, no safener, evaluated after 13 days, 100=total damage to plant, 0=no damage.
Format: in vivo
Method: Seeds of the Winter Wheat variety ‘Hereward’ were sown in standard soil in pots. After 8 days cultivation under controlled conditions in a glasshouse (at 24/16° C., day/night; 14 hours light; 65% humidity), the plants were sprayed post-emergence with an aqueous spray solution derived from the formulation of the technical active ingredient in acetone/water (50:50) solution containing 0.5% Tween 20 (polyoxyethylene sorbitan monolaurate, CAS RN 9005-64-5). The test plants were then grown in a glasshouse under controlled conditions in a glasshouse (at 24/16° C., day/night; 14 hours light; 65% humidity) and watered twice daily. After 13 days for pre and post-emergence, the test was evaluated (100=total damage to plant; 0=no damage to plant).

In order of falling “Winter Wheat (Hereward) (damage to plant)” value:
1. CCc1sc(-c2ccc(Cl)cc2)nc1C1C(=O)C/C(=C\C2CCOCC2)C1=O (stereo not drawn) [Compound A7]  90
2. Cc1sc(-c2ccc(Cl)cc2)nc1C1C(=O)CC(CC2CCOCC2)C1=O (stereo not drawn) [Compound A18]  80
3. Cc1cc(-c2ccc(Cl)cc2)nn1C1C(=O)CC(CC2CCOCC2)C1=O (stereo not drawn) [Compound A25]  80
4. Cc1sc(-c2ccccc2)nc1C1C(=O)CC(CC2CCOCC2)C1=O (stereo not drawn) [Compound A17]  60
5. Cc1cc(-c2ccc(Cl)cc2)nn1C1C(=O)C/C(=C/c2ccc(F)cn2)C1=O (stereo not drawn) [Compound A22]  60
6. Cc1cnc(-c2ccc(Cl)cc2)nc1C1C(=O)C/C(=C\C2CCOCC2)C1=O (stereo not drawn) [Compound A9]  50

Each molecule was assayed on Winter Wheat variety 'Hereward' (assay: Crop damage to winter wheat seed treated with safener cloquintocet mexyl, post-emergence spray). Conditions: 250 g/ha, seed treated with cloquintocet mexyl 0.5 g/kg seed, evaluated after 13 days, 100=total damage, 0=no damage.
Format: in vivo
Method: Seeds of the Winter Wheat variety ‘Hereward’ were seed treated with a wettable powder formulation of the cereal herbicide safener, cloquintocet mexyl, at a rate of 0.5 grams per kilogram of dry seed prior to the initiation of glasshouse testing. One seed was sown per 1.5 inch plastic pot into a sandy loam soil at a depth of 1 cm, 8 days prior to application of the test compounds and was watered and grown under controlled conditions in a glasshouse (at 24/16° C., day/night; 14 hours light; 65% humidity). The plants were sprayed post-emergence with an aqueous spray solution derived from the formulation of the technical active ingredient in acetone/water (50:50) solution containing 0.5% Tween 20 (polyoxyethylene sorbitan monolaurate, CAS RN 9005-64-5). The test plants were then grown in a glasshouse under controlled conditions in a glasshouse (at 24/16° C., day/night; 14 hours light; 65% humidity) and watered twice daily. After 13 days for pre and post-emergence, the test was evaluated (100=total damage to plant; 0=no damage to plant).

In order of rising “Winter Wheat (Hereward) + cloquintocet mexyl (damage to plant)” value:
1. Cc1cnc(-c2ccc(Cl)cc2)nc1C1C(=O)C/C(=C\C2CCOCC2)C1=O (stereo not drawn) [Compound A9]  0
2. Cc1cc(-c2ccc(Cl)cc2)nn1C1C(=O)C/C(=C/c2ccc(F)cn2)C1=O (stereo not drawn) [Compound A22]  10
3. Cc1sc(-c2ccccc2)nc1C1C(=O)CC(CC2CCOCC2)C1=O (stereo not drawn) [Compound A17]  40
4. CCc1sc(-c2ccc(Cl)cc2)nc1C1C(=O)C/C(=C\C2CCOCC2)C1=O (stereo not drawn) [Compound A7]  40
5. Cc1cc(-c2ccc(Cl)cc2)nn1C1C(=O)CC(CC2CCOCC2)C1=O (stereo not drawn) [Compound A25]  40
6. Cc1sc(-c2ccc(Cl)cc2)nc1C1C(=O)CC(CC2CCOCC2)C1=O (stereo not drawn) [Compound A18]  90
